Measured values as given in ChEMBL document CHEMBL5576083, “Structure-Based Design and Synthesis of Covalent Inhibitors for Deubiquitinase and Acetyltransferase ChlaDUB1 of Chlamydia trachomatis” (J Med Chem, 2024).
In brackets after ≈: the same amount, converted by molar mass. Activity calls are given as the source filed them. The calls are words filed in the database; no cut-off is given here.

Columns and labels:
[1] = Covalent inhibition of C-terminal 6His-tagged Chlamydia trachomatis DUB1 (130 to 401 residues) expressed in Escherichia coli Rosetta 2 (DE3) cells using Ub-Rh110Gly as fluorogenic substrate preincubated for 1 hr followed by substrate addition by plate reader analysis
[2] = test system: Chlamydia trachomatis; experiment: Anti-chlamydial activity against Chlamydia trachomatis serovar L2 infected in human HEp-2 cells assessed as inhibition of chlamydial inclusion incubated for 24 hrs by Alexa488/DAPI staining based immunofluorescence assay; type: functional, organism-based; settings: serovar L2, HEp-2, 24 h
[3] = biological target: Ubiquitin carboxyl-terminal hydrolase 7 (Homo sapiens) (UniProt Q93009); experiment: Binding affinity to USP7 (208 to 1102 residues) (unknown origin) expressed in Sf9 insect cells assessed as ratio of Kinact/Ki incubated for 3 hrs by fluorescence based analysis
Ubiquitin carboxyl-terminal hydrolase 7 (Homo sapiens), sequence (Q93009 whole entry, looked up, the tested form may be a part): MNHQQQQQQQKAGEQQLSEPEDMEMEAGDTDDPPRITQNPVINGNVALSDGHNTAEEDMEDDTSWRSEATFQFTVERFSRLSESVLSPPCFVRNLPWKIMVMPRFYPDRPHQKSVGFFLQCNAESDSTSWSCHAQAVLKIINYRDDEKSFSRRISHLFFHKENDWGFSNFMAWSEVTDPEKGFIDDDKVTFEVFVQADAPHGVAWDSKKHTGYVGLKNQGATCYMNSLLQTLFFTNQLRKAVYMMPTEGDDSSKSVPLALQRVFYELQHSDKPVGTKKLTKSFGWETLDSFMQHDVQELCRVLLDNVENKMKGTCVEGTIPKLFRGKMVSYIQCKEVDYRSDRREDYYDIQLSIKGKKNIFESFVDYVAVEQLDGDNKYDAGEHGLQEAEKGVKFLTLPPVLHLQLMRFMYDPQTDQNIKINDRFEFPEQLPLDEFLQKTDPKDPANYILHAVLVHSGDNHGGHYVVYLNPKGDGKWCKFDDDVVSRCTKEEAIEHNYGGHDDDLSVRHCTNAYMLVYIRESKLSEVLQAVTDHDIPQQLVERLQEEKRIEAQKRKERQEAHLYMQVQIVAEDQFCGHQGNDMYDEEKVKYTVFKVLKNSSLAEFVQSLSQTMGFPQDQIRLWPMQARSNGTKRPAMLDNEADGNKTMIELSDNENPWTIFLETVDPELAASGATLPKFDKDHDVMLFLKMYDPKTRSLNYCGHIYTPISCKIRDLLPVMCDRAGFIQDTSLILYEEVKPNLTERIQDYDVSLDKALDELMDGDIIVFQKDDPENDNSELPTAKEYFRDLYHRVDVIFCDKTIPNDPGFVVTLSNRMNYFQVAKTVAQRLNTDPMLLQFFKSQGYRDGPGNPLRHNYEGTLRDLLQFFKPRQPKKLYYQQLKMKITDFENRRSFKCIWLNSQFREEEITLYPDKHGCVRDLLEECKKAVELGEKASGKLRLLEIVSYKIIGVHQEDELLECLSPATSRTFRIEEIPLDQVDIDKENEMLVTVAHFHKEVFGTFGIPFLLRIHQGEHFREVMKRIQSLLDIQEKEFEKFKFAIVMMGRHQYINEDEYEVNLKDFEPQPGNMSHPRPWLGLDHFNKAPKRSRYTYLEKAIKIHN

[4] = biological target: T1, Ubiquitin carboxyl-terminal hydrolase isozyme L1 (Homo sapiens, UniProt P09936); experiment: Inhibition of 6His-tagged human UCHL1 using Ub-Rh110Gly as fluorogenic substrate preincubated for 1 hr followed by substrate addition by plate reader analysis
T1 sequence (P09936 whole entry): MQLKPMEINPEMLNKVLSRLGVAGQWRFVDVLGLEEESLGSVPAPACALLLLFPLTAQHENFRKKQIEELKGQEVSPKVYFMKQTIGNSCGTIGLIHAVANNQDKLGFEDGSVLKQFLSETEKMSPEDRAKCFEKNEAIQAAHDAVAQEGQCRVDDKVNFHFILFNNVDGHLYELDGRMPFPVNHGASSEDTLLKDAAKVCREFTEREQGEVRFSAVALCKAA

[5] = test system: Chlamydia trachomatis; experiment: Antimicrobial activity against Chlamydia trachomatis serovar L2 infected in human HeLa cells assessed as reduction in inclusion forming unit at 1 ug/ml measured at 24 to 48 hrs of post-infection by immunofluorescence based microscopic analysis; type: functional, organism-based; settings: dose 1.0 µg/ml, time 24-48 hrs
[6] = test system: Chlamydia trachomatis; experiment: Antimicrobial activity against Chlamydia trachomatis serovar L2 infected in human HeLa cells assessed as fold increase in inclusion forming unit at 1 ug/ml measured after 48 hrs of post-infection by immunofluorescence based microscopic analysis; type: functional; settings: dose 1 µg/ml
[7] = biological target: Ubiquitin carboxyl-terminal hydrolase isozyme L1 (Homo sapiens) (UniProt P09936); experiment: Binding affinity to human UCHL1 (1 to 223 residues) expressed in Escherichia coli Rosetta 2 (DE3) cells using Ub-Rh110Gly as fluorogenic substrate assessed as ratio of Kinact/Ki by fluorescence based analysis
[8] = test system: Chlamydia trachomatis; experiment: Binding affinity to C-terminal 6His-tagged Chlamydia trachomatis DUB1 (130 to 401 residues) expressed in Escherichia coli Rosetta 2 (DE3) cells using Ub-Rh110Gly as fluorogenic substrate assessed as Kinact preincubated for 60 mins followed by substrate addition measured after 360 mins by plate reader analysis; settings: time 420.0 min
[9] = Binding affinity to C-terminal 6His-tagged Chlamydia trachomatis DUB1 (130 to 401 residues) expressed in Escherichia coli Rosetta 2 (DE3) cells using Ub-Rh110Gly as fluorogenic substrate assessed as inhibition constant preincubated for 60 mins followed by substrate addition measured after 360 mins by plate reader analysis
[10] = test system: Chlamydia trachomatis; experiment: Binding affinity to C-terminal 6His-tagged Chlamydia trachomatis DUB1 (130 to 401 residues) expressed in Escherichia coli Rosetta 2 (DE3) cells using Ub-Rh110Gly as fluorogenic substrate assessed as ratio of Kinact/Ki preincubated for 60 mins followed by substrate addition measured after 360 mins by plate reader analysis; settings: time 420.0 min
[11] = test system: Chlamydia trachomatis; experiment: Antimicrobial activity against Chlamydia trachomatis serovar L2 infected in human HeLa cells assessed as reduction in inclusion area at 12.5 ug/ml measured after 24 hrs of post-infection by microscopic analysis (reference value: 79.96 microm2); type: functional; settings: dose 12.5 µg/ml
[12] = test system: Chlamydia trachomatis; experiment: Antimicrobial activity against Chlamydia trachomatis serovar L2 infected in human HeLa cells assessed as reduction in inclusion area at 6.25 ug/ml measured after 24 hrs of post-infection by microscopic analysis (reference value: 79.96 microm2); type: functional; settings: dose 6.25 µg/ml
[13] = test system: Chlamydia trachomatis; experiment: Antimicrobial activity against Chlamydia trachomatis serovar L2 infected in human HeLa cells assessed as reduction in inclusion circumference at 12.5 ug/ml measured after 24 hrs of post-infection by microscopic analysis (reference value: 33.2 micrometer); type: functional; settings: dose 12.5 µg/ml
[14] = test system: Chlamydia trachomatis; experiment: Antimicrobial activity against Chlamydia trachomatis serovar L2 infected in human HeLa cells assessed as reduction in inclusion circumference at 6.25 ug/ml measured after 24 hrs of post-infection by microscopic analysis (reference value: 33.2 micrometer); type: functional; settings: dose 6.25 µg/ml
[15] = test system: Chlamydia trachomatis; experiment: Antimicrobial activity against Chlamydia trachomatis serovar L2 infected in human HeLa cells assessed as reduction in microbial progeny at 12.5 ug/ml measured after 24 hrs of post-infection by immunofluorescence analysis; type: functional; design: scale not given: the % may be the effect or the level left; settings: dose 12.5 µg/ml
[16] = test system: Chlamydia trachomatis; experiment: Antimicrobial activity against Chlamydia trachomatis serovar L2 infected in human HeLa cells assessed as reduction in microbial progeny at 6.25 ug/ml measured after 24 hrs of post-infection by immunofluorescence analysis; type: functional; design: scale not given: the % may be the effect or the level left; settings: dose 6.25 µg/ml
[17] = test system: Chlamydia trachomatis; experiment: Antimicrobial activity against Chlamydia trachomatis serovar L2 infected in human HeLa cells assessed as reduction in microbial progeny at 3.13 ug/ml measured after 24 hrs of post-infection by immunofluorescence analysis; type: functional; design: scale not given: the % may be the effect or the level left; settings: dose 3.13 µg/ml
[18] = test system: Chlamydia trachomatis; experiment: Antimicrobial activity against Chlamydia trachomatis serovar L2 infected in human HeLa cells assessed as reduction in microbial progeny at 1.56 ug/ml measured after 24 hrs of post-infection by immunofluorescence analysis; type: functional; design: scale not given: the % may be the effect or the level left; settings: dose 1.56 µg/ml
[19] = test system: Chlamydia trachomatis; experiment: Antimicrobial activity against Chlamydia trachomatis serovar L2 infected in human HeLa cells assessed as reduction in microbial progeny at 3.13 ug/ml measured after 48 hrs of post-infection by immunofluorescence analysis; type: functional; design: scale not given: the % may be the effect or the level left; settings: dose 3.13 µg/ml
[20] = test system: Chlamydia trachomatis; experiment: Antimicrobial activity against Chlamydia trachomatis serovar L2 infected in human HeLa cells assessed as reduction in microbial progeny at 1.56 ug/ml measured after 48 hrs of post-infection by immunofluorescence analysis; type: functional; design: scale not given: the % may be the effect or the level left; settings: dose 1.56 µg/ml

| SMILES | IC50 [1] [µM] | pIC50 [1] | IC50 [2] [µg/mL] | also measured |
| --- | --- | --- | --- | --- |
| N#Cc1ncc(C(=O)NCc2ccc(C(=O)NCC3CC3)cc2)cn1 | 37 | 4.43 | 47.7 (≈ 142 µM) | – |
| C=CS(=O)(=O)Nc1ccccc1-c1ccc(C(=O)N2CCC(O)(Cn3cnc4c(cnn4C)c3=O)CC2)cc1 | – | – | – | Ratio [3]: 66 M⁻¹ s⁻¹ |
| Cn1c(-c2ccc(CNC(=O)c3cnc(C#N)nc3)cc2)nc2ccccc21 | 131 | 3.88 | – | – |
| N#Cc1ncc(C(=O)NCc2ccccc2)cn1 | 154 | 3.82 | – | – |
| CC(C)CN(CC(C)C)C(=O)c1ccc(CNC(=O)c2cnc(C#N)nc2)cc1 | 35 | 4.46 | 28.4 (≈ 72.2 µM) | – |
| Cc1nn(C)c2cc(-c3ccc(-n4cnc(NC(=O)[C@H]5CCN(C#N)C5)c4)cc3)ccc12 | – | – | – | IC50 [4]: < 1 µM |
| N#Cc1ncc(C(=O)NCc2ccc(C(=O)NCCN3CCOCC3)cc2)cn1 | 51 | 4.29 | – | – |
| C[C@H]1c2cccc(O)c2C(=O)C2=C(O)[C@]3(O)C(=O)C(C(N)=O)=C(O)[C@@H](N(C)C)[C@@H]3[C@@H](O)[C@@H]21 [DOXYCYCLINE ANHYDROUS] | – | – | 0.018 (≈ 0.0405 µM) | Activity [5]: Active; fold change (FC) [6]: 5.3 |
| CC(=O)c1ccc(CNC(=O)c2cnc(C#N)nc2)cc1 | 74 | 4.13 | 47.4 (≈ 169 µM) | – |
| C#CCCCNC(=O)c1ccc(-n2cnc(NC(=O)[C@H]3CCN(C#N)C3)c2)cc1 | – | – | – | Ratio [7]: 681 M⁻¹ s⁻¹ |
| COc1ccc(CNC(=O)c2ccc(CNC(=O)c3cnc(C#N)nc3)cc2)cc1 | 521 | 3.28 | – | – |
| COc1cccc(CNC(=O)c2ccc(CNC(=O)c3cnc(C#N)nc3)cc2)c1 | 81 | 4.09 | > 50 | – |
| CCCN(CCC)C(=O)c1ccc(CNC(=O)c2cnc(C#N)nc2)cc1 | 74 | 4.13 | – | – |
| CC(C)(C)N(Cc1ccc(C(=O)Cc2ccccc2)cc1)C(=O)c1cnc(C#N)nc1 | 41 | 4.13 | 9.88 (≈ 24 µM) | Activity [11]: 23.3 um2; Activity [12]: 44.93 um2; Activity [13]: 18.05 um; Activity [14]: 24.83 um; Activity [15]: 81%; Activity [16]: 38.5%; Activity [17]: 31.5%; Activity [18]: 16.5%; Activity [19]: 51.5%; Activity [20]: 55.5% |
| Cc1ccc(CNC(=O)c2ccc(CNC(=O)c3cnc(C#N)nc3)cc2)cc1 | 241 | 3.62 | – | – |
| N#Cc1ncc(C(=O)NCc2ccc(C(=O)NCCc3ccccc3)cc2)cn1 | 64 | 4.2 | – | – |

Continued by falling IC50 [1], values first:

| IC50 [1] [µM] | pIC50 [1] | IC50 [2] [µg/mL] | SMILES | also measured |
| --- | --- | --- | --- | --- |
| 31 | 4.51 | – | N#Cc1ncc(C(=O)NCc2ccc(C(=O)NCc3nccs3)cc2)cn1 | – |
| 31 | 4.5 | 16.9 (≈ 42.1 µM) | COc1ccccc1CNC(=O)c1ccc(CNC(=O)c2cnc(C#N)nc2)cc1 | Ki [9]: 276 µM |
| 27 | 4.57 | 19.4 (≈ 52.2 µM) | N#Cc1ncc(C(=O)NCc2ccc(C(=O)NCc3ccccc3)cc2)cn1 | Ki [9]: 226 µM |
| 25 | 4.6 | 40.7 (≈ 116 µM) | N#Cc1ncc(C(=O)NCc2ccc(C(=O)NCCC3CC3)cc2)cn1 | – |
| 24 | 4.63 | – | N#Cc1ncc(C(=O)NCc2ccc(C(=O)Cc3ccccc3)cc2)cn1 | – |
| 23 | 4.64 | – | N#Cc1ncc(C(=O)NCc2ccc(C(=O)NCC3CCCCC3)cc2)cn1 | – |
| 21 | 4.67 | 38.9 (≈ 111 µM) | N#Cc1ncc(C(=O)NCc2ccc(C(=O)NCC3CCC3)cc2)cn1 | – |
| 21 | 4.68 | 17.3 (≈ 44.9 µM) | Cc1cccc(CNC(=O)c2ccc(CNC(=O)c3cnc(C#N)nc3)cc2)c1 | – |
| 18 | 4.75 | 16.9 (≈ 43.8 µM) | Cc1ccccc1CNC(=O)c1ccc(CNC(=O)c2cnc(C#N)nc2)cc1 | – |
| 16 | 4.79 | – | N#Cc1ncc(C(=O)NCc2ccc(C(=O)N3CCc4ccccc4C3)cc2)cn1 | – |
| 14 | 4.86 | – | N#Cc1ncc(C(=O)NCc2ccc(C(=O)CCN3CCOCC3)cc2)cn1 | Kinact [8]: 0.363 min⁻¹; Ki [9]: 441 µM; Ratio [10]: 13.7 M⁻¹ s⁻¹ |
| 13 | 4.9 | 15.8 (≈ 38 µM) | CCOc1ccccc1CNC(=O)c1ccc(CNC(=O)c2cnc(C#N)nc2)cc1 | – |
